Measured values reported in ChEMBL document CHEMBL5226338, “Molecular hybrids: A five-year survey on structures of multiple targeted hybrids of protein kinase inhibitors for cancer therapy” (Eur J Med Chem, 2021).

Experiments:
[1] = target: Tyrosine-protein kinase JAK2 (Homo sapiens, UniProt O60674); assay: Inhibition of JAK2 (unknown origin)
[2] = target: T1, Protein deacetylase HDAC6 (Homo sapiens, UniProt Q9UBN7); assay: Inhibition of HDAC6 (unknown origin)
T1 sequence (Q9UBN7 whole entry): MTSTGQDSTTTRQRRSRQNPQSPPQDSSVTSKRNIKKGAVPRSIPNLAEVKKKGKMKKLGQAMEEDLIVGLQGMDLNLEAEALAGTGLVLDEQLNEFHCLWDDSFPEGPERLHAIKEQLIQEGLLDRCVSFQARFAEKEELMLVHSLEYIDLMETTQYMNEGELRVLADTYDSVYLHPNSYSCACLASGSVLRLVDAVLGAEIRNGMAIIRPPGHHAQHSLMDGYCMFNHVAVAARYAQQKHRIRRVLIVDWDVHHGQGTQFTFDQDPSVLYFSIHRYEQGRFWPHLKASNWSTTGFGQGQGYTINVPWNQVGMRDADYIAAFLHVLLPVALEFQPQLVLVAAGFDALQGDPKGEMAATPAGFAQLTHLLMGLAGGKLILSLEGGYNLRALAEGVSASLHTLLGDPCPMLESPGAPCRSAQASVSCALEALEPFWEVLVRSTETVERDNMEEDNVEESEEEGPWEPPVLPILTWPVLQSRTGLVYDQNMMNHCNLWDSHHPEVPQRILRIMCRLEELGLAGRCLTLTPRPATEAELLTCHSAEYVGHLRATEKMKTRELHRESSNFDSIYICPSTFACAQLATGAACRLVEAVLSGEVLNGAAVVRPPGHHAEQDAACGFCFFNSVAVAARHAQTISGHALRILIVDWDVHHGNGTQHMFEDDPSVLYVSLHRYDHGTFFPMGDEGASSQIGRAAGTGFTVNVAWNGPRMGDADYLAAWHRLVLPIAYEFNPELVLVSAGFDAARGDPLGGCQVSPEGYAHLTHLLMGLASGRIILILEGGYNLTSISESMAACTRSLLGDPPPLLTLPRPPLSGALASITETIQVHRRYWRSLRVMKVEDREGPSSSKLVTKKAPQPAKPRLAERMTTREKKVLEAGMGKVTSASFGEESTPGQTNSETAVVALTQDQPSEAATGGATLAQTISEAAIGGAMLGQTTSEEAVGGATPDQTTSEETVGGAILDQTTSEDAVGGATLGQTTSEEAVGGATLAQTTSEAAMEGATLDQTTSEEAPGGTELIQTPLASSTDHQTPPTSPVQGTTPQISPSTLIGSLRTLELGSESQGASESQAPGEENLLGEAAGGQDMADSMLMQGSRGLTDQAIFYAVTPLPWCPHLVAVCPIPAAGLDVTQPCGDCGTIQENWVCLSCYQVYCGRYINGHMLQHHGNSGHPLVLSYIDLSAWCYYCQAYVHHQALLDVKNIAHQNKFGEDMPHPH

Janus Kinase (JAK) = Janus Kinase (JAK) (Homo sapiens, UniProt P52333+P23458+O60674+P29597); assay: Inhibition of JAK (unknown origin); format: protein assay
Tubulin beta = assay: Inhibition of beta-tubulin polymerization (unknown origin) measured every 3 secs for 1 hr by spectrofluorometer; format: protein assay, Homo sapiens
[3] = target: T2, Epidermal growth factor receptor (Homo sapiens, UniProt P00533); assay: Inhibition of EGFR (unknown origin) phosphorylation by ELISA
[4] = target: T2, Epidermal growth factor receptor; assay: Inhibition of EGFR (unknown origin)
Bcr/Abl fusion protein = Bcr/Abl fusion protein (Homo sapiens, UniProt P00519); assay: Inhibition of BCR-Abl (unknown origin) incubated for 1 hr by ADP-glo assay; format: protein assay
Histone deacetylase 1 [5] = target: T3, Histone deacetylase 1 (Homo sapiens, UniProt Q13547); assay: Inhibition of full length human recombinant HDAC1 using AcLys-Tyr-Lys(e-acetyl)-AMC as substrate incubated for 24 hrs
A549 = assay: Antiproliferative activity against human A549 cells assessed as inhibition of cell growth incubated for 48 hrs by MTT assay; format: functional, cell-based; settings: A549, 48 h
[6] = target: T2, Epidermal growth factor receptor; assay: Inhibition of EGFR (unknown origin) phosphorylation using kit-tyr4 peptide as substrate incubated for 1 hr in presence of ATP by UV-Vis spectrophotometer
DNA topoisomerase 1 = DNA topoisomerase 1 (Homo sapiens, UniProt P11387); assay: Inhibition of human DNA topoisomerase 1 incubated for 2 hrs by ELISA
[7] = target: T2, Epidermal growth factor receptor; assay: Inhibition of EGFR (unknown origin) using poly (Glu,Tyr) 4:1 as substrate incubated for 1 hr in presence of ATP by spectrophotometric analysis relative to sorafenib; settings: concentration not given here
[8] = target: Vascular endothelial growth factor receptor 2 (Homo sapiens, UniProt P35968); assay: Inhibition of VEGFR2 (unknown origin) using biotin-gastrin precursor (Tyr87) peptide as substrate incubated for 1 hr in presence of ATP by spectrophotometric analysis relative to sorafenib; settings: concentration not given here
[9] = Cytotoxicity against human U87 cells; format: functional, cell-based, U-87MG ATCC; settings: U-87 MG
Histone deacetylase 1 [10] = target: T3, Histone deacetylase 1; assay: Inhibition of recombinant HDAC1 (unknown origin) using Fluor-de-Lys as substrate incubated for 10 mins by fluorescence based analysis
[11] = target: Serine/threonine-protein kinase B-raf (Homo sapiens, UniProt P15056, V600E); assay: Inhibition of full length human BRAF V600E mutant using His-tagged full length human MEK1 (K97R) as substrate incubated for 20 mins by [gamma-33P]ATP based filter-binding method
Tubulin [12] = assay: Inhibition of tubulin (unknown origin) polymerization; format: protein-complex assay, Homo sapiens
[13] = target: T2, Epidermal growth factor receptor; assay: Inhibition of GST-fused EGFR (unknown origin) in presence of ATP by microplate reader analysis
HepG2 = assay: Cytotoxicity against human HepG2 cells assessed as inhibition of cell growth incubated for 24 hrs by MTT assay; format: functional, cell-based; settings: HepG2, 24 h
U-937 = assay: Antiproliferative activity against human U-937 cells assessed as inhibition of cell growth incubated for 72 hrs by MTT assay; format: functional, cell-based; settings: U-937, 72 h
Cyclin-dependent kinase = assay: Inhibition of CDK (unknown origin); format: protein assay, Homo sapiens
Tubulin [14] = target: Tubulin (Bos taurus, UniProt Q6B856+Q862L2+Q862F3); assay: Inhibition of bovine brain tubulin polymerization incubated for 20 mins by spectrophotometric method; format: tissue-based
SK-MEL-1 = assay: Antiproliferative activity against human SK-MEL-1 cells assessed as inhibition of cell growth incubated for 72 hrs by MTT assay; format: functional, cell-based; settings: SK-MEL-1, 72 h
Histone deacetylase = assay: Inhibition of HDAC in human HeLa cell nuclear extract using Boc-Lys (acetyl)-AMC as substrate preincubated for 15 mins followed by substrate addition and measured after 60 mins by fluorescence based analysis; format: subcellular, Nucleus
[15] = target: MAP kinase-interacting serine/threonine-protein kinase 2 (Homo sapiens) (UniProt Q9HBH9); assay: Inhibition of MNK2 (unknown origin) at 1 uM incubated for 60 mins by HTRF assay relative to control
[16] = target: MAP kinase-interacting serine/threonine-protein kinase 1 (Homo sapiens) (UniProt Q9BUB5); assay: Inhibition of MNK1 (unknown origin) at 1 uM incubated for 60 mins by HTRF assay relative to control
Sequence of MAP kinase-interacting serine/threonine-protein kinase 1 (Homo sapiens) (Q9BUB5 whole entry, looked up): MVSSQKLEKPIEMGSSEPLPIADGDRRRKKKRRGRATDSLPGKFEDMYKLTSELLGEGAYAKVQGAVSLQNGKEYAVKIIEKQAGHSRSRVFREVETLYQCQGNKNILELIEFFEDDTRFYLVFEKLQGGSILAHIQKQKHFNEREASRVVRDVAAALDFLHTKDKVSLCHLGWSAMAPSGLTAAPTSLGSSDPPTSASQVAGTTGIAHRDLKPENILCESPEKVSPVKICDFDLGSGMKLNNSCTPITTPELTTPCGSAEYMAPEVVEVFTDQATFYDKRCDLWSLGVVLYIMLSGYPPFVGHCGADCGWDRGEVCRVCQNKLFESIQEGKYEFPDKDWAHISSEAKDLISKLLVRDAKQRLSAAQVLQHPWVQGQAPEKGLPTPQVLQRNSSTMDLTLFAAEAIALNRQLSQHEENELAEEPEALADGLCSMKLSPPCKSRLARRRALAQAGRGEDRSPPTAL

T2 sequence (P00533 whole entry): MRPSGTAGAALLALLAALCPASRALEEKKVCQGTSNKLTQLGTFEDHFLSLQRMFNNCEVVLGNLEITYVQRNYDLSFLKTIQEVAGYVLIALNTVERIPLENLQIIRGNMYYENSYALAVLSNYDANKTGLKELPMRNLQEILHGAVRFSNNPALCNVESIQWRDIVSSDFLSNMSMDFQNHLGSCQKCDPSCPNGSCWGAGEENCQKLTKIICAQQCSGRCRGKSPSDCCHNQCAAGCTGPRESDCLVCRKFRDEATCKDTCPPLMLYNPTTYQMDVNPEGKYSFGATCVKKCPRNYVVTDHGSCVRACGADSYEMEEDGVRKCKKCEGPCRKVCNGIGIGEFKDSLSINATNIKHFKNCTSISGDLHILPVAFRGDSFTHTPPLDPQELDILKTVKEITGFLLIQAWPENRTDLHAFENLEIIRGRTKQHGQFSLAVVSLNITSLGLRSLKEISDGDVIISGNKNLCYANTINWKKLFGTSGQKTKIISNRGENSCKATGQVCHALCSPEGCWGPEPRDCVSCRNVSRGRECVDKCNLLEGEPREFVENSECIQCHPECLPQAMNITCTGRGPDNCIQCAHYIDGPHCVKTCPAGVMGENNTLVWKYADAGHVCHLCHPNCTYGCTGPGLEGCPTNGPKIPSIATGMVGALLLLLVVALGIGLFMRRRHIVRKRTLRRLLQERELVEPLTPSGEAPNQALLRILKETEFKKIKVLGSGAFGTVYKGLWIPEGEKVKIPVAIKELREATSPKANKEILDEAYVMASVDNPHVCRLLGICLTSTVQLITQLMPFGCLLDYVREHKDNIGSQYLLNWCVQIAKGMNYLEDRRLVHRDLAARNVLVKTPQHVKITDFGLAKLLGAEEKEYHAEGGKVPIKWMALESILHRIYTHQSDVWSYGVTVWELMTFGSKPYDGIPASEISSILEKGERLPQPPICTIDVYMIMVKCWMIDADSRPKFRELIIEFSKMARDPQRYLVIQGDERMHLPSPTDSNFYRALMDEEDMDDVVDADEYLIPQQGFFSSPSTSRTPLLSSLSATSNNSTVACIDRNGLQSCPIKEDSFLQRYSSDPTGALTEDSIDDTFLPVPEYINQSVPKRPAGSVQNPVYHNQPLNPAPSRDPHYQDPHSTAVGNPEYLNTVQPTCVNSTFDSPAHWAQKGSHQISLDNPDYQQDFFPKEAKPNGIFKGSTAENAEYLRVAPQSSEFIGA
T3 sequence (Q13547 whole entry): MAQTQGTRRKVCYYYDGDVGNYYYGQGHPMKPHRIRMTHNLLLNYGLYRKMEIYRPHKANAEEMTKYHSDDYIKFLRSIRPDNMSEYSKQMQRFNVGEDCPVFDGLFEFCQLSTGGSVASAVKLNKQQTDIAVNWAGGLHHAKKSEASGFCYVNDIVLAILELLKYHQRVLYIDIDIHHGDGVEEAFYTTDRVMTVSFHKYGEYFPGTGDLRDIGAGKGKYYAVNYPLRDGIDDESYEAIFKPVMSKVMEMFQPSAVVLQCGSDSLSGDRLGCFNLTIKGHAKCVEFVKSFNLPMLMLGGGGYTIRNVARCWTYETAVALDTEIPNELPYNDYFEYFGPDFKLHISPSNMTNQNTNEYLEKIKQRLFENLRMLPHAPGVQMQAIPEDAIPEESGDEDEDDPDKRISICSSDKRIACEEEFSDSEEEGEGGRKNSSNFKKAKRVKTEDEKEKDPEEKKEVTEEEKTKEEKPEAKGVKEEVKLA
Sequence of DNA topoisomerase 1 (P11387 whole entry): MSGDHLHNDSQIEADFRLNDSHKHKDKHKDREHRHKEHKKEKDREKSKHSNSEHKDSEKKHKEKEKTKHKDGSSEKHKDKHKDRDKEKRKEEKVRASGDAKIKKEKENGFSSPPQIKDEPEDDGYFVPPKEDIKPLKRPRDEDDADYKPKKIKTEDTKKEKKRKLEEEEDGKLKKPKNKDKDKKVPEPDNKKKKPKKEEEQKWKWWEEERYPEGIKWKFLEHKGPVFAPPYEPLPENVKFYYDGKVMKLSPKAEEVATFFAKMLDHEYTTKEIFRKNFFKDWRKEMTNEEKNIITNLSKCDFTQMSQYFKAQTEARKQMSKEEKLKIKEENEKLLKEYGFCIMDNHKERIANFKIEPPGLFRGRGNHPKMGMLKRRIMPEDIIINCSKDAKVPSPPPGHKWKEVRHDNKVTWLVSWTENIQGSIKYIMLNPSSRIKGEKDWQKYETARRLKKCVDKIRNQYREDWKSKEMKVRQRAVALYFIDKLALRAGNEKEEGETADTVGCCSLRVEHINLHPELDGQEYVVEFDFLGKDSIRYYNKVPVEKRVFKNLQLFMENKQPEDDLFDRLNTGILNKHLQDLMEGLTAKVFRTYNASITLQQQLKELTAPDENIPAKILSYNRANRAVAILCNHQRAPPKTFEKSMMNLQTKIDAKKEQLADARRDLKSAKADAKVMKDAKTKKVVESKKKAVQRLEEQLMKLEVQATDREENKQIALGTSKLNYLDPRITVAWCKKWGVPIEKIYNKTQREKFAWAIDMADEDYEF
Sequence of Tyrosine-protein kinase JAK2 (O60674 whole entry): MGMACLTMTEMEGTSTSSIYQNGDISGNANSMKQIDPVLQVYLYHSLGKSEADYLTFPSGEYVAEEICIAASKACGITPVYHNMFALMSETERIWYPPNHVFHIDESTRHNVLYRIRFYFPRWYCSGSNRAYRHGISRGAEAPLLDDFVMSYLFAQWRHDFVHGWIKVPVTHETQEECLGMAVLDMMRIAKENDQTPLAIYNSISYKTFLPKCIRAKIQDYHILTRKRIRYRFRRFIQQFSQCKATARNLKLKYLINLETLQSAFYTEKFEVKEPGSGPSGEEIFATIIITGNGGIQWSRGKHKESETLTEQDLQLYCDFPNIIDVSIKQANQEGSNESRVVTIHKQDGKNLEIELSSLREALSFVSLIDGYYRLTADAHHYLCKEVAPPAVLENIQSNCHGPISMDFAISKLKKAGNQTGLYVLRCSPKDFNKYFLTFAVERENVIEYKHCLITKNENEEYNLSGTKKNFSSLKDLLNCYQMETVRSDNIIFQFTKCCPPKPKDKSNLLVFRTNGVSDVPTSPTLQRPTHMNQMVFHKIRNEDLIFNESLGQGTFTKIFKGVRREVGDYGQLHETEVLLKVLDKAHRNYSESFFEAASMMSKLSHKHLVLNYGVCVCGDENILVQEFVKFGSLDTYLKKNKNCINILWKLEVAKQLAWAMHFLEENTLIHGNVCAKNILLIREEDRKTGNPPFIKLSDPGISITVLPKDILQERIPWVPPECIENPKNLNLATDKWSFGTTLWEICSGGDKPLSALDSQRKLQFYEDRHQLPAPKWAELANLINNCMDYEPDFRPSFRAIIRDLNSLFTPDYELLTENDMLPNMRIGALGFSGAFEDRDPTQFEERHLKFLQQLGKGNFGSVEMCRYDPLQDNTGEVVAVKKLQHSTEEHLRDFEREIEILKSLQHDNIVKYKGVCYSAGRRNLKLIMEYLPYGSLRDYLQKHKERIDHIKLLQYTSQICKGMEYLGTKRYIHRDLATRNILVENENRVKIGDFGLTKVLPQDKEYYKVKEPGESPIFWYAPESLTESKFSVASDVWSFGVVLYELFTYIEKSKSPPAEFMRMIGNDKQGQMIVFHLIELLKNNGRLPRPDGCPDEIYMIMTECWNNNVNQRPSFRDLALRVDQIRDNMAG
Sequence of MAP kinase-interacting serine/threonine-protein kinase 2 (Homo sapiens) (Q9HBH9 whole entry, looked up): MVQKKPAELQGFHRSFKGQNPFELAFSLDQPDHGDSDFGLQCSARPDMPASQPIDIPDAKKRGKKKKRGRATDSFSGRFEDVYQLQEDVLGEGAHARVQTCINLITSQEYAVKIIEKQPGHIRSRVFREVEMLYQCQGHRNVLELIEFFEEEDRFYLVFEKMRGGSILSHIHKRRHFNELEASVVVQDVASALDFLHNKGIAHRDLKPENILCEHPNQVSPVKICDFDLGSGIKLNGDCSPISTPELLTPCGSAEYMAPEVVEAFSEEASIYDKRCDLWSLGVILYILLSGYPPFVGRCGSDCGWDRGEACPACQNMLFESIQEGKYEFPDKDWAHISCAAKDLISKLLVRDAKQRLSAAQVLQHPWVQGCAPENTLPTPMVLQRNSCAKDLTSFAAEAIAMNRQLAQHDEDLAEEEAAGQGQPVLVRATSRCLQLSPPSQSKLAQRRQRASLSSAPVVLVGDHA

Question: What does the source list for `CS(=O)(=O)Nc1ccc(-c2ccnc(Nc3ccc(N4CCC(CCc5ccc(/C=C/CC(=O)NO)cc5)CC4)cc3)n2)cc1`?
Answer: IC50 [1]: 8 nM; IC50 [2]: 46 nM

Question: With `O=C(CCCCCCn1cc(Nc2ncc(Cl)c(Nc3ccc(Cl)cc3)n2)cn1)NO` as the compound, how does the IC50 (Janus Kinase (JAK)) read?
Answer: Its IC50 is 4 nM.

Question: Which IC50 (Tubulin beta) does the source give for `O=C(/C=C/c1ccc(F)cc1)c1cc(Br)cc2cc(-c3ccccc3)oc12` here?
Answer: Its IC50 is 5.51 µM.

Question: What about the IC50 [3] of the same compound?
Answer: Its IC50 is 90 nM.

Question: With `CSc1nn(-c2ccc(Br)cc2)c2nc(C)nc(Nc3ccc(OCCCC[N+](=O)[O-])cc3)c12` as the compound, how does the IC50 [4] read?
Answer: Its IC50 is 3 µM.

Question: Which IC50 (Bcr/Abl fusion protein) does the source give for `CCN1CCN(Cc2cc(Nc3ncc(C(=O)Nc4ccccc4N)s3)nc(C)n2)CC1` here?
Answer: Its IC50 is 21.2 nM.

Question: What about the IC50 (Histone deacetylase 1 [5]) of the same compound?
Answer: Its IC50 is 150 nM.

Question: Which IC50 (A549) does the source give for `COc1ccc(CNc2nc3ccccc3c(NCc3ccc(OC)cc3)c2[N+](=O)[O-])cc1` here?
Answer: The IC50 was 6.5 µM.

Question: And the IC50 [6]?
Answer: Its IC50 is 220 nM.

Question: Which IC50 (DNA topoisomerase 1) does the source give for `N#CC1=C(N)Oc2ccccc2C1c1cc2ccccc2n2nnnc12` (configuration not stated) here?
Answer: Its IC50 is 278 nM.

Question: What about the inhibition [7] of the same compound?
Answer: Its inhibition is 30%.

Question: And the inhibition [8]?
Answer: The inhibition was 60%.

Question: For `O=[N+]([O-])OCCCOc1ccc(Nc2ncnc3c2cnn3-c2ccc(Br)cc2)cc1`, which IC50 [4] is on record?
Answer: The IC50 was 3 µM.

Question: Which IC50 [9] does the source give for `C=C[C@]1(C)CC[C@@H](C(=C)COC(=O)CNC(=O)CCC(=O)OCCCCOc2no[n+]([O-])c2S(=O)(=O)c2ccccc2)C[C@H]1C(=C)C` here?
Answer: Its IC50 is 2 nM.

Question: What does the source list for `COc1ccc(NC(=O)Nc2ccc(Oc3ccc(C(=O)c4ncc[nH]4)cc3)cc2)cc1`?
Answer: IC50 (Histone deacetylase 1 [10]): 635 nM; IC50 [11]: 1700 nM

Question: Which results are given for `CCCOCCSc1nc(-c2ccccc2Cl)nn1CCOCCC`?
Answer: IC50 (Tubulin [12]): 107 nM; IC50 [13]: 867 nM; IC50 (HepG2): 1300 nM

Question: For `COc1ccc(CCNc2nc(N)c(C(=O)c3cc(OC)c(OC)c(OC)c3)s2)cc1`, which IC50 (U-937) is on record?
Answer: Its IC50 is 5.7 µM.

Question: What about the IC50 (Cyclin-dependent kinase) of the same compound?
Answer: Its IC50 is > 10 µM.

Question: What about the IC50 (Tubulin [14]) of the same compound?
Answer: The IC50 was > 20 µM.

Question: And the IC50 (SK-MEL-1)?
Answer: The IC50 was 8 µM.

Question: With `O=C(CCCCCCNc1ccc2ncnc(Nc3ccc(F)cc3)c2n1)NO` as the compound, how does the IC50 (Histone deacetylase) read?
Answer: The IC50 was 0.78 µM.

Question: And the inhibition [15]?
Answer: The inhibition was 70%.

Question: And the inhibition [16]?
Answer: The inhibition was 54%.
